pIC50: −log10 of the molar value.
Tests used:
HEK-Blue-hTLR8 cells = target: T1, HEK-Blue-hTLR8 cells (Homo sapiens, UniProt Q9NR97); experiment: HEK-Blue-hTLR8 cell inhibition assay; format: cell-based; conditions: R848 3 µM, 16 h, OD 620 nm, read-out: TLR8 IC50
T1 construct: expressed in transfected cells; host or cells: HEK-Blue-hTLR8 cells (HEK293-derived reporter line)
T1 sequence (Q9NR97 27-1041): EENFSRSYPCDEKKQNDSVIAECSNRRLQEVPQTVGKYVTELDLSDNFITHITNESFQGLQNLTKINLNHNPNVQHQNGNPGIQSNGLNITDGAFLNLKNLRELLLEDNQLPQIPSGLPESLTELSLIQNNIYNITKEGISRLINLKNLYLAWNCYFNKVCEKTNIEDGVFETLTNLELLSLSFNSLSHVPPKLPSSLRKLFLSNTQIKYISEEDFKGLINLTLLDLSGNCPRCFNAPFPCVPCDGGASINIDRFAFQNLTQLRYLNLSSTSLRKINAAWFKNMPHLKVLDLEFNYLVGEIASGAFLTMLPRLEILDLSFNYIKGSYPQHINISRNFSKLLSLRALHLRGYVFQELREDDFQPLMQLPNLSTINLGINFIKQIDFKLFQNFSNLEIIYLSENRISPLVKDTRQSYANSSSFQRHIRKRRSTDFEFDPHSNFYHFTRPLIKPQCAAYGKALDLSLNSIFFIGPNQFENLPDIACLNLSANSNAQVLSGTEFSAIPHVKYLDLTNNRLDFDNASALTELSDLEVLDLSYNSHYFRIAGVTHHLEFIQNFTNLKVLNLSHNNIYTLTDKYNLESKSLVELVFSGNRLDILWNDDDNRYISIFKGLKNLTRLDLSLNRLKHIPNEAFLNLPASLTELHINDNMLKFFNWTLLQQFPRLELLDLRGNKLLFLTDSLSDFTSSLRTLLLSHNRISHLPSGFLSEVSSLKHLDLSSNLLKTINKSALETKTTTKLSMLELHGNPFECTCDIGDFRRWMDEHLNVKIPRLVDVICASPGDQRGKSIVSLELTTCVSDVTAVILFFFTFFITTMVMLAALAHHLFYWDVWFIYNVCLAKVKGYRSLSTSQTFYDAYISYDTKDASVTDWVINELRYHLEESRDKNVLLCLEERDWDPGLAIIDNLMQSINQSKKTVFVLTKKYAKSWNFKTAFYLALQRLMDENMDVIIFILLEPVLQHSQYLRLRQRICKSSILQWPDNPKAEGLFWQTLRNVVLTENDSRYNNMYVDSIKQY
Procedure: (§1) HEK-Blue-hTLR7/8/9 cell inhibition assay
(§2) 1. HEK-Blue-hTLR7/8 cells (1 × 10^4 cells/well) and HEK-Blue-hTLR9 cells (1.5 × 10^4 cells/well) were seeded in a 384-well cell culture plate, with a volume of 30 µL per well. The plate was incubated at 37°C in a 5% CO2 incubator for 4 h. 2. The compound was prepared with DMSO and diluted in DMEM medium to 10 concentrations (1:3 dilution), with final concentrations of 10000, 3333.3, 1111.1, 370.4, 123.5, 41.2, 13.7, 4.6, 1.5, and 0.5 nM; R848 was prepared with DMSO and diluted in DMEM medium, with final concentrations of 0.8 µM (HEK-Blue-hTLR7) and 3 µM (HEK-Blue-hTLR8); ODN2006 was prepared with endotoxin-free water and diluted in DMEM medium, with a final concentration of 1 µM. 3. Cells treated with DMSO were used as the blank control group, while cells treated solely with Resiquimod (R848) were used as the positive control group for HEK-Blue-hTLR7/8, and cells treated solely with ODN2006 were used as the positive control group for HEK-Blue-hTLR9. Cells treated with the test compound together with R848 or ODN2006 were used as the test group. Two parallel wells were set for each group and were placed at 37°C in a 5% CO2 incubator for incubation. 4. After being incubated for 4 h, the 384-well plate of HEK-Blue-hTLR7/8 was taken out from the incubator, and R848 alone or both R848 and the diluted compound were separately added into each well. The plate was placed at 37°C in a 5% CO2 incubator for incubation for 16 h; the 384-well plate of HEK-Blue-hTLR9 was taken out from the incubator, and ODN2006 alone or both ODN2006 and the diluted compound were added separately to each well. The plate was incubated at 37°C in a 5% CO2 incubator for 16 h. 5. After being incubated for 16 h, the 384-well plate was removed from the incubator and centrifuged at 1000 rpm for 1 minute. The optical density value of each well at 620 nm was measured using a multifunctional microplate reader. 6. The cell inhibition rate was calculated as (1-(OD620 test group-OD620 blank group)/(OD620 positive group-OD620 blank group))×100%, and the half maximal inhibitory concentration (IC50) was calculated through curve fitting. Table 1: Activity of the compounds of the present disclosure in HEK-Blue-hTLR7/8/9 cellular assays

HEK-Blue-hTLR7 cells = target: T2, HEK-Blue-hTLR7 cells (Homo sapiens, UniProt Q9NYK1); experiment: HEK-Blue-hTLR7 cell inhibition assay; format: cell-based; conditions: R848 0.8 µM, 16 h, OD 620 nm, read-out: TLR7 IC50
T2 construct: expressed in transfected cells; host or cells: HEK-Blue-hTLR7 cells (HEK293-derived reporter line)
T2 sequence (Q9NYK1 27-1049): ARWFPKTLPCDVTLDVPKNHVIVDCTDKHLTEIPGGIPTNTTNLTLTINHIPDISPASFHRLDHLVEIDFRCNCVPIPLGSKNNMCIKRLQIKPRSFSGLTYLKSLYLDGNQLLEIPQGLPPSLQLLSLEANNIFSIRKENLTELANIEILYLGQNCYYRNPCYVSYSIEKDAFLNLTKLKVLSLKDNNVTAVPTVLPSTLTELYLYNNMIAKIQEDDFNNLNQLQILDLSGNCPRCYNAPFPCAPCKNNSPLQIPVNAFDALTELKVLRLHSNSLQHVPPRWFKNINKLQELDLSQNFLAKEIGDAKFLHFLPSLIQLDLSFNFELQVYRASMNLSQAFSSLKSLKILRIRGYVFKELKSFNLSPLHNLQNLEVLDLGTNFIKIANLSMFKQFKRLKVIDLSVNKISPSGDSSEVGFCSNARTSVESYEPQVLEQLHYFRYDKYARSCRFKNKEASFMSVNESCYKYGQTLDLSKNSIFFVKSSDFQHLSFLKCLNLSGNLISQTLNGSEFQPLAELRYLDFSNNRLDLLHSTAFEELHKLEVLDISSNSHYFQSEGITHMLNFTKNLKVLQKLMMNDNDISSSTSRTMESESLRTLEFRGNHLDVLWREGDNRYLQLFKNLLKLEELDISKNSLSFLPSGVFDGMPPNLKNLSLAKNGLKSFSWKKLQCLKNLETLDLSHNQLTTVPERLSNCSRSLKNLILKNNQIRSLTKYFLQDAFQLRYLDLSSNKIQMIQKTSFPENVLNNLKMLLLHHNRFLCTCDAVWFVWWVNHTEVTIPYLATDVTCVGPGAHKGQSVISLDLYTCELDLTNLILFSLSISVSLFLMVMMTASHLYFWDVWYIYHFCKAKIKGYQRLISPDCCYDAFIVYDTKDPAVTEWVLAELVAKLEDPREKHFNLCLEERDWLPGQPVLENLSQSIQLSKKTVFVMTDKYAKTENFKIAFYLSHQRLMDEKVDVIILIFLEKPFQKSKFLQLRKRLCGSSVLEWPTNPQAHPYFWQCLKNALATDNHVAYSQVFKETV
Procedure: as §1, §2

Compound | pIC50 (HEK-Blue-hTLR8 cells) | pIC50 (HEK-Blue-hTLR7 cells)
COc1ccc2c(N3C[C@]4(c5nnc(C6CCN(C)CC6)o5)C[C@]4(C(F)(F)F)C3)ccc(C#N)c2n1 [Compound 61, 2-methoxy-5-((1S,5R)-1-(5-(1-methylpiperidin-4-yl)-1,3,4-oxadiazol-2-yl)-5-(trifluoromethyl)-3-azabicyclo[3.1.0]hexan-3-yl)quinoline-8-carbonitrile] | > 6.00 | < 6.00
CN1CCN(c2nnc([C@]34CN(c5ccc(C#N)n6ncc(F)c56)C[C@@]3(C(F)(F)F)C4)o2)CC1 [Compound 63, 3-fluoro-4-((1S,5R)-1-(5-(4-methylpiperazin-1-yl)-1,3,4-oxadiazol-2-yl)-5-(trifluoromethyl)-3-azabicyclo[3.1.0]hexan-3-yl)pyrazolo[1,5-a]pyridine-7-carbonitrile] | > 7.00 | > 7.00
CN1CCC(c2nnc([C@]34CN(c5ccc(Cl)c6ncccc56)C[C@@]3(C(F)(F)F)C4)o2)CC1 [Compound 67, 2-((1S,5R)-3-(8-chloroquinolin-5-yl)-5-(trifluoromethyl)-3-azabicyclo[3.1.0]hexan-1-yl)-5-(1-methylpiperidin-4-yl)-1,3,4-oxadiazole] | > 7.00 | > 7.00
CN1CCC(c2nnc([C@]34CN(c5ccc(C#N)c6c5ccc(=O)n6C)C[C@@]3(C(F)(F)F)C4)o2)CC1 [Compound 72, 1-methyl-5-((1S,5R)-1-(5-(1-methylpiperidin-4-yl)-1,3,4-oxadiazol-2-yl)-5-(trifluoromethyl)-3-azabicyclo[3.1.0]hexan-3-yl)-2-oxo-1,2-dihydroquinoline-8-carbonitrile] | > 6.00 | < 6.00
CN1CCC(c2nnc([C@]34CN(c5cnc(C#N)c6ncccc56)C[C@@]3(C(F)(F)F)C4)o2)CC1 [Compound 68, 5-((1S,5R)-1-(5-(1-methylpiperidin-4-yl)-1,3,4-oxadiazol-2-yl)-5-(trifluoromethyl)-3-azabicyclo[3.1.0]hexan-3-yl)-1,7-naphthyridine-8-carbonitrile] | > 7.00 | > 7.00
CCc1nc2c(C#N)ccc(N3C[C@]4(c5nnc(C6CCN(C)CC6)o5)C[C@]4(C(F)(F)F)C3)c2nc1CC [Compound 70, 2,3-diethyl-8-((1S,5R)-1-(5-(1-methylpiperidin-4-yl)-1,3,4-oxadiazol-2-yl)-5-(trifluoromethyl)-3-azabicyclo[3.1.0]hexan-3-yl)quinoxaline-5-carbonitrile] | < 5.00 | < 6.00
CN1CCC(c2nnc([C@]34CN(c5ccc(F)c6ncccc56)C[C@@]3(C(F)(F)F)C4)o2)CC1 [Compound 69, 2-((1S,5R)-3-(8-fluoroquinolin-5-yl)-5-(trifluoromethyl)-3-azabicyclo[3.1.0]hexan-1-yl)-5-(1-methylpiperidin-4-yl)-1,3,4-oxadiazole] | > 7.00 | > 7.00
CN1[C@@H]2CC[C@H]1C[C@@H](c1nnc([C@]34CN(c5ccc(C(F)(F)F)c6ncccc56)C[C@@]3(C(F)(F)F)C4)o1)C2 [Compound 78, 2-((1R,3R,5S)-8-methyl-8-azabicyclo[3.2.1]octan-3-yl)-5-((1S,5R)-5-(trifluoromethyl)-3-(8-(trifluoromethyl)quinolin-5-yl)-3-azabicyclo[3.1.0]hexan-1-yl)-1,3,4-oxadiazole] | > 7.00 | > 7.00
CN1CC2(CC(c3nnc([C@]45CN(c6ccc(C(F)(F)F)c7ncccc67)C[C@@]4(C(F)(F)F)C5)o3)C2)C1 [Compound 16, 2-(2-methyl-2-azaspiro[3.3]heptan-6-yl)-5-((1S,5R)-5-(trifluoromethyl)-3-(8-(trifluoromethyl)quinolin-5-yl)-3-azabicyclo[3.1.0]hexan-1-yl)-1,3,4-oxadiazole] | > 7.00 | > 7.00
CN1CCC(c2nnc([C@]34CN(c5ccc(C#N)c6nc(Cl)ccc56)C[C@@]3(C(F)(F)F)C4)o2)CC1 [Compound 58, 2-chloro-5-((1S,5R)-1-(5-(1-methylpiperidin-4-yl)-1,3,4-oxadiazol-2-yl)-5-(trifluoromethyl)-3-azabicyclo[3.1.0]hexan-3-yl)quinoline-8-carbonitrile] | < 6.00 | < 6.00
CN1CCC(c2nnc([C@]34CN(c5ccc([N+](=O)[O-])c6ncccc56)C[C@@]3(C(F)(F)F)C4)o2)CC1 [Compound 62, 2-(1-methylpiperidin-4-yl)-5-((1S,5R)-3-(8-nitroquinolin-5-yl)-5-(trifluoromethyl)-3-azabicyclo[3.1.0]hexan-1-yl)-1,3,4-oxadiazole] | > 7.00 | > 7.00
CN1CCC(Oc2nnc([C@]34CN(c5ccc(C#N)n6nccc56)C[C@@]3(C(F)(F)F)C4)o2)CC1 [Compound 89, 4-((1S,5R)-1-(5-((1-methylpiperidin-4-yl)oxy)-1,3,4-oxadiazol-2-yl)-5-(trifluoromethyl)-3-azabicyclo[3.1.0]hexan-3-yl)pyrazolo[1,5-a]pyridine-7-carbonitrile] | > 7.00 | > 7.00
